Test results as given in the NIST ThermoML archive (doi:10.1021/je900359y).

Experiment: mn = molality of the nth substance listed, in mol/kg
Settings: Liquid, Constant-volume piezometry

[Br-].[NH4+] [ammonium bromide] + N
mass density [kg/m3]
Settings | 303.15 K | 313.15 K | 323.15 K | 333.15 K | 343.15 K | 353.15 K | 363.15 K | 373.15 K
10000 kPa, m1 = 1.143 | 675.9 | 661.3 | 646.8 | 630.2 | 612.8 | 594.5 | 576 | –
10000 kPa, m1 = 2.601 | 750.8 | 737.8 | 724.3 | 709.5 | 693.7 | 676.6 | 659.3 | –
10000 kPa, m1 = 4.381 | 829 | 817.3 | 805 | 791.1 | 778.3 | 765.5 | 748.7 | 737.7
10000 kPa, m1 = 7.359 | 939.1 | 926.8 | 914.3 | 903.1 | 891.2 | 878.6 | 866.4 | 854.6
10000 kPa, m1 = 10.35 | 1028.9 | 1017 | 1005.2 | 994.4 | 983.9 | 973 | 961.1 | 950.1
10000 kPa, m1 = 15.17 | 1126.2 | 1116.9 | 1105.9 | 1096 | 1086.6 | – | 1067.8 | 1057.7
15000 kPa, m1 = 1.143 | 679.5 | 665.1 | 651.2 | 635.4 | 618.5 | 601.3 | 583.7 | 569.5
15000 kPa, m1 = 2.601 | 754.5 | 741.4 | 727.7 | 714 | 698.1 | 681.9 | 665.4 | 652.4
15000 kPa, m1 = 4.381 | 832.7 | 820.9 | 808.9 | 795.1 | 782.6 | 769.6 | 754.3 | 742.9
15000 kPa, m1 = 7.359 | 942.7 | 929.8 | 917.4 | 906.7 | 894.7 | 882.5 | 870.2 | 858.5
15000 kPa, m1 = 10.35 | 1032.2 | 1020.3 | 1008.3 | 997.8 | 987.4 | 976.5 | 965.6 | 954.3
15000 kPa, m1 = 15.17 | 1128.1 | 1118.8 | 1107.8 | 1098.2 | 1089.1 | – | 1070.1 | 1060.3
20000 kPa, m1 = 1.143 | 682.7 | 668.9 | 655.4 | 640.3 | 624.1 | 607.9 | 590.9 | 577.4
20000 kPa, m1 = 2.601 | 758 | 745 | 731.4 | 718.3 | 702.6 | 687.1 | 671.2 | 658.4
20000 kPa, m1 = 4.381 | 836.1 | 824.2 | 812.6 | 799.1 | 786.7 | 773.8 | 759.5 | 748
20000 kPa, m1 = 7.359 | 945.8 | 932.8 | 920.3 | 909.8 | 898.2 | 886.2 | 873.8 | 862.2
20000 kPa, m1 = 10.35 | 1034.9 | 1023.2 | 1011.2 | 1001.2 | 991.3 | 979.8 | 969 | 958
20000 kPa, m1 = 15.17 | 1130.1 | 1120.4 | 1109.7 | 1100.3 | 1091.2 | – | 1072.4 | 1062.6
25000 kPa, m1 = 1.143 | 686.3 | 672.6 | 659.7 | 645.1 | 629.9 | 614.6 | 598.2 | 585.2
25000 kPa, m1 = 2.601 | 761.3 | 748.6 | 734.9 | 722.5 | 707.2 | 692 | 677.1 | 664.3
25000 kPa, m1 = 4.381 | 839.1 | 827.6 | 816.1 | 803 | 790.7 | 778.1 | 764.4 | 752.9
25000 kPa, m1 = 7.359 | 948.9 | 935.5 | 923 | 912.7 | 901.6 | 889.7 | 877.4 | 865.9
25000 kPa, m1 = 10.35 | 1037.4 | 1025.9 | 1014.1 | 1004 | 993.6 | 983 | 972.5 | 961.3
25000 kPa, m1 = 15.17 | 1132 | 1122 | 1111.5 | 1102.2 | 1093.3 | – | 1074.8 | 1065.1
30000 kPa, m1 = 1.143 | 689.5 | 676.3 | 663.8 | 649.5 | 635.4 | 621.2 | 605.2 | 592.7
30000 kPa, m1 = 2.601 | 764.4 | 752.1 | 738.7 | 726.3 | 711.7 | 697 | 682.6 | 670
30000 kPa, m1 = 4.381 | 842.1 | 830.7 | 819.4 | 807.1 | 794.2 | 782.2 | 769 | 757.6
30000 kPa, m1 = 7.359 | 951.2 | 938 | 926 | 915.6 | 904.9 | 893.2 | 881.3 | 870
30000 kPa, m1 = 10.35 | 1039.8 | 1028.6 | 1016.7 | 1006.9 | 995.8 | 986.6 | 975.7 | 964.7
30000 kPa, m1 = 15.17 | 1134 | 1123.6 | 1113.4 | 1104 | 1095.4 | – | 1076.8 | 1067.1
